The results in this text go back to ChEMBL document CHEMBL3124913, “Sinugyrosanolide A, an unprecedented C-4 norcembranoid, from the Formosan soft coral Sinularia gyrosa” (Bioorg Med Chem Lett, 2014).

Calls of active or inactive are those of the source. The rule behind the calls is not given here.

A word on the EC50: it is the midpoint of the concentration-response curve.

One assay deals with Klebsiella aerogenes. Nature of the assay: Antibacterial activity against Enterobacter aerogenes ATCC 13048 at 100 ug/ml after 24 hrs. Type of assay: functional, organism-based.
The test system of assay [1] is Human betaherpesvirus 5. Nature of the assay: Antiviral activity against Human cytomegalovirus infected in Human HEL cells assessed as virus-induced cytopathic effect treated 1 hr prior to infection measured after 7 days. The assay is classed as functional, organism-based. As to conditions: Human betaherpesvirus 5, HEL. On the technique in general: Damage to the host cells serves as the signal in cytopathic effect assays.

Another assay deals with P388. The experiment in a line: Cytotoxicity against mouse P388 cells by MTT assay. Type of assay: functional, cell-based. (Formazan colour is commonly taken as a measure of viable cells.)
For another assay, the system named is HT-29. The experiment in a line: Cytotoxicity against human HT-29 cells by MTT assay. The assay is classed as functional, cell-based.
The subject of assay [2] is Human betaherpesvirus 5. Nature of the assay: Antiviral activity against Human cytomegalovirus infected in Human HEL cells assessed as virus-induced cytopathic effect at 1 ug/ml treated 1 hr prior to infection measured after 7 days. The assay is classed as functional, organism-based.
A further assay concerns Shigella sonnei. The experiment in a line: Antibacterial activity against Shigella sonnei ATCC 11060 at 100 ug/ml after 24 hrs. The assay is classed as functional, organism-based.
The test system of the next assay is Yersinia enterocolitica. The experiment in a line: Antibacterial activity against Yersinia enterocolitica ATCC 23715 at 100 ug/ml after 24 hrs. Type of assay: functional, organism-based.
A further assay concerns Serratia marcescens. Nature of the assay: Antibacterial activity against Serratia marcescens ATCC 25419 at 100 ug/ml after 24 hrs. Type of assay: functional, organism-based.
The next assay has as its system Salmonella enteritidis. Nature of the assay: Antibacterial activity against Salmonella enteritidis ATCC 13076 at 100 ug/ml after 24 hrs. Type of assay: functional, organism-based. As to conditions: Salmonella enterica subsp. enterica serovar Enteritidis.
The next assay concerns A549. Nature of the assay: Cytotoxicity against human A549 cells by MTT assay. The assay is classed as functional, cell-based.

For the compound `C=C(C)[C@@H]1CC(=O)C[C@H]2C(=O)[C@@H]3[C@@H]4C(=C[C@@H]12)C(=O)O[C@@H]4C[C@]3(C)O`, the result in the assay with Klebsiella aerogenes, in the assay on Human betaherpesvirus 5 [2], with Shigella sonnei, in the assay on Yersinia enterocolitica, in the assay on Serratia marcescens and with Salmonella enteritidis was inactive. For the same compound, the EC50 in the assay with Human betaherpesvirus 5 [1] is above 50 mg/L; with P388, 11.8 µM; in the assay with HT-29 it was above 20 µM; with A549, above 20 µM.
On to `CO[C@H](C(=O)[C@@H](O)[C@@H](C)O)[C@@H]1Cc2cc3cc(O[C@H]4C[C@@H](O[C@@H]5C[C@@H](O)[C@H](O)[C@@H](C)O5)[C@H](O)[C@@H](C)O4)c(C)c(O)c3c(O)c2C(=O)[C@H]1O[C@H]1C[C@@H](O[C@@H]2C[C@@H](O)[C@@H](O[C@@H]3C[C@](C)(O)[C@H](O)[C@@H](C)O3)[C@@H](C)O2)[C@H](O)[C@@H](C)O1` [PLICAMYCIN], for which the figures for the EC50 with P388, with HT-29 and with A549 were 0.05 µM, 0.07 µM and 0.06 µM, respectively.
